Measurements as given in EP0258782A2, “Use of 1-(substituted mercapto-hydroxyethyl)-triazoles in the treatment of illnesses” (BAYER AG, priority 1986, dated 1988).
Converted amounts (≈) assume the structure as drawn.

Tests used:
[1] = system: Aspergillus fumigatus; assay: Antimycotic in-vitro activity, serial dilution test (MIC); format: cell-based; settings: Sabouraud's milieu d'epreuve, 28-37 °C, 96 h, inoculum 5 x 10^3 to 10^4 germs/ml, read-out: MHK-Werte in γ/ml Nährmedium, Aspergillus fumigatus
Protocol: (§1) Die in-vitro-Prüfungen wurden im Reihenverdünnungstest mit Keiminokula von durchschnittlich 5 x 10³ bis 10⁴ Keimen/ml Substrat durchgeführt. Als Nähmedium dienten • a) für Dermatophyten und Schimmelpilze: Sabouraud's milieu d'epreuve • b) für Hefen: Fleischextrakt-Traubenzucker-Bouillon.
(§2) Die Bebrütungstemperatur betrug 28 °C bis 37 °C, die Bebrütungsdauer lag bei 24 bis 96 Stunden bei Hefen und 96 Stunden bei Dermatophyten und Schimmelpilzen.

[2] = system: Candida albicans; assay: as above; format: cell-based; settings: Fleischextrakt-Traubenzucker-Bouillon, 28-37 °C, 24-96 h, inoculum 5 x 10^3 to 10^4 germs/ml, read-out: MHK-Werte in γ/ml Nährmedium, Candida albicans
Protocol: as §1, §2

[3] = system: Microsporum canis; assay: as above; format: cell-based; settings: Sabouraud's milieu d'epreuve, 28-37 °C, 96 h, inoculum 5 x 10^3 to 10^4 germs/ml, read-out: MHK-Werte in γ/ml Nährmedium, Microsporum canis
Protocol: as §1, §2

[4] = system: Torulopsis glabrata; assay: as above; format: cell-based; settings: Nakaseomyces glabratus; Fleischextrakt-Traubenzucker-Bouillon; 28-37 °C, 24-96 h; inoculum 5 x 10^3 to 10^4 germs/ml; read-out: MHK-Werte in γ/ml Nährmedium, Torulopsis glabrata
Protocol: as §1, §2

[5] = system: Trichophyton mentagr.; assay: as above; format: cell-based; settings: Sabouraud's milieu d'epreuve, 28-37 °C, 96 h, inoculum 5 x 10^3 to 10^4 germs/ml, read-out: MHK-Werte in γ/ml Nährmedium, Trichophyton mentagr.
Protocol: as §1, §2

[6] = system: Candida-Zellen; assay: Antimycotic in-vivo activity (oral) in mouse candidosis; set-up: species or system Mäuse vom Typ SPF-CF1; settings: for Wirkung (Überlebende am 6. Tag p.i.): mice infected i.v. with Candida, 25-100 mg/kg oral, 1 h before and 7 h after infection; for Wirkung compared with (A) and (B): mouse candidosis, oral, statement in words
Protocol: Mäuse vom Typ SPF-CF₁ wurden intravenös mit 1 - 2 x 10⁶ logarithmisch wachsenden Candida-Zellen, die in physiologischer Kochsalzlösung suspendiert werden, infiziert. Eine Stunde vor und sieben Stunden nach der Infektion werden die Tiere mit jeweils 25 - 100 mg/kg Körpergewicht der Präparate oral behandelt.
Unbehandelte Tiere starben 3 bis 6 Tage post infektionem. Die Überlebensrate am 6.Tag post infektionem betrug bei unbehandelten Kontrolltieren etwa 5 %.

[7] = system: Trichophyton mentagrophytes; assay: In-vivo activity (local) in experimental guinea pig trichophytosis; set-up: species or system Meerschweinchen der Rasse Pirbright-white; settings: for Wirkung (Infektionszeichen): 0,1 % solution in Dimethylsulfoxid : Glycerin = 1 : 4, local, once daily from day 3 p.i.; for Wirkung (in words): guinea pig trichophytosis, local, 0,1 % solution, statement in words
Source text: Weiße Meerschweinchen der Rasse Pirbright-white wurden auf dem geschorenen, nicht skarifizierten Rücken mit einer Mikro- und Makrokoniden-Suspension von Trichophyton mentagrophytes infiziert.
Die infizierten Tiere wurden beginnend mit dem 3.Tag p.i. 1 x täglich mit einer 0,1 %igen Lösung der erdingungsgemäßen Präparate (in Dimethylsulfoxid : Glycerin = 1 : 4) lokal behandelt.
Bei unbehandelten Tieren entwickelte sich innerhalb von 12 Tagen p.i. das Typische Bild einer Dermatophytose mit Rötung, Schuppung und Haarausfall bis zum totalen Integument-Defekt an der Infektionsstelle.

| Compound | MIC [1] [µg/mL] | MIC [2] [µg/mL] | MIC [3] [µg/mL] | MIC [4] [µg/mL] | MIC [5] [µg/mL] | Wirkung (Überlebende am 6. Tag p.i.) [6] | Wirkung compared with (A) and (B) [6] | Wirkung (Infektionszeichen) [7] | Wirkung (in words) [7] |
| --- | --- | --- | --- | --- | --- | --- | --- | --- | --- |
| CC(C)SCC(O)(Cn1cncn1)C(C)(C)Cc1ccc(Br)cc1 (stereo not drawn) [I-40] | < 1 | < 1 | 2 (≈ 4.85 µM) | < 1 | < 1 | +++ (= Wirkung = 60 % Überlebende am 6.Tag.p.i.) | bessere Wirkung | ++++ (gute Wirkung = geringe Rötung, vereinzelt Schuppen) | gute |
| CCCCSCC(O)(Cn1cncn1)C(C)(C)Cc1ccc(SC(F)(F)F)cc1 (stereo not drawn) [I-61] | 2 (≈ 4.47 µM) | 8 (≈ 17.9 µM) | 2 (≈ 4.47 µM) | 32 (≈ 71.5 µM) | < 1 | – | – | – | – |
| CC(C)SCC(O)(Cn1cncn1)C(C)(C)Cc1ccc(SC(F)(F)F)cc1 (stereo not drawn) [I-62] | 2 (≈ 4.61 µM) | < 1 | < 1 | < 1 | < 1 | ++ (= schwache Wirkung = 40 % Überlebende am 6.Tag.p.i.) | bessere Wirkung | – | – |
| CC(C)CSCC(O)(Cn1cncn1)C(C)(C)Cc1ccc(Cl)cc1 (stereo not drawn) [I-43] | < 1 | < 1 | < 1 | 4 (≈ 10.5 µM) | < 1 | – | – | – | – |
| CCCSCC(O)(Cn1cncn1)C(C)(C)Cc1ccc(SC(F)(F)F)cc1 (stereo not drawn) [I-60] | < 1 | 2 (≈ 4.61 µM) | 2 (≈ 4.61 µM) | 4 (≈ 9.23 µM) | < 1 | – | – | – | – |
| CCCSCC(O)(Cn1cncn1)C(C)(C)Cc1ccc(F)cc1 (stereo not drawn) [I-53] | < 1 | < 1 | 2 (≈ 5.69 µM) | 2 (≈ 5.69 µM) | < 1 | – | – | – | – |
| CCSCC(O)(Cn1cncn1)C(C)(C)Cc1cccc(C)c1 (stereo not drawn) [I-64] | 4 (≈ 12 µM) | < 1 | 2 (≈ 6 µM) | 4 (≈ 12 µM) | 2 (≈ 6 µM) | – | – | – | – |
| CC(C)(Oc1ccc(-c2ccccc2)cc1)C(O)(CSc1ccc(Cl)cc1)Cn1cncn1 (stereo not drawn) [I-93] | – | – | – | – | – | +++++ (= sehr gute Wirkung = 90 % Überlebende am 6.Tag.p.i.) | bessere Wirkung | – | – |
| CC(C)SCC(O)(Cn1cncn1)C(C)(C)Cc1ccc(Cl)cc1 (stereo not drawn) [I-46] | < 1 | < 1 | 4 (≈ 10.9 µM) | < 1 | < 1 | ++ (= schwache Wirkung = 40 % Überlebende am 6.Tag.p.i.) | bessere Wirkung | – | – |
| CCCSCC(O)(Cn1cncn1)C(C)(C)Cc1ccc(OC(F)(F)F)cc1 (stereo not drawn) [I-51] | < 1 | < 1 | < 1 | < 1 | < 1 | ++ (= schwache Wirkung = 40 % Überlebende am 6.Tag.p.i.) | bessere Wirkung | – | – |
| CCSCC(O)(Cn1cncn1)C(C)(C)Cc1ccccc1C (stereo not drawn) [I-67] | 4 (≈ 12 µM) | < 1 | 2 (≈ 6 µM) | 2 (≈ 6 µM) | < 1 | – | – | – | – |
| CCSCC(O)(Cn1cncn1)C(C)(C)Cc1ccc(Cl)cc1 (stereo not drawn) [I-45] | < 1 | 2 (≈ 5.65 µM) | < 1 | 2 (≈ 5.65 µM) | < 1 | – | – | – | – |
| CCCSCC(O)(Cn1cncn1)C(C)(C)Cc1ccc(C)cc1 (stereo not drawn) [I-49] | < 1 | < 1 | 2 (≈ 5.75 µM) | 2 (≈ 5.75 µM) | < 1 | – | – | – | – |
| CCSCC(O)(Cn1cncn1)C(C)(C)Cc1ccc(OC(F)(F)F)cc1 (stereo not drawn) [I-52] | < 1 | < 1 | 2 (≈ 4.96 µM) | 16 (≈ 39.7 µM) | < 1 | ++++ (= gute Wirkung = 80 % Überlebende am 6.Tag.p.i.) | bessere Wirkung | +++++ | sehr gute Wirkung |
| CCCSCC(O)(Cn1cncn1)C(C)(C)COc1ccc(Cl)c(C)c1 (stereo not drawn) [I-70] | 8 (≈ 20.1 µM) | < 1 | 2 (≈ 5.03 µM) | 8 (≈ 20.1 µM) | < 1 | – | – | – | – |
| CC(C)(Cc1ccc(F)cc1)C(O)(CSCc1ccc(Cl)cc1)Cn1cncn1 (stereo not drawn) [I-58] | 8 (≈ 18.4 µM) | 2 (≈ 4.61 µM) | 4 (≈ 9.22 µM) | < 1 | < 1 | – | – | – | – |
| Cc1cc(Cl)ccc1OC(C)(C)C(O)(CSc1ccc(Cl)cc1)Cn1cncn1 (stereo not drawn) [I-94] | – | – | – | – | – | ++++ (= gute Wirkung = 80 % Überlebende am 6.Tag.p.i.) | bessere Wirkung | – | – |
| CCSCC(O)(Cn1cncn1)C(C)(C)COc1ccc(Cl)cc1 (stereo not drawn) [I-68] | < 1 | < 1 | < 1 | 4 (≈ 10.8 µM) | < 1 | – | – | – | – |
| CSCC(O)(Cn1cncn1)C(C)(C)Cc1ccc(Cl)cc1 (stereo not drawn) [I-42] | < 1 | < 1 | < 1 | 8 (≈ 23.5 µM) | < 1 | – | – | – | – |
| Cc1cccc(CC(C)(C)C(O)(CSC(C)C)Cn2cncn2)c1 (stereo not drawn) [I-65] | 4 (≈ 11.5 µM) | 2 (≈ 5.75 µM) | 4 (≈ 11.5 µM) | 16 (≈ 46 µM) | 2 (≈ 5.75 µM) | – | – | – | – |
| CCCSCC(O)(Cn1cncn1)C(C)(C)Cc1ccc(Cl)cc1 (stereo not drawn) [I-41] | < 1 | < 1 | < 1 | 4 (≈ 10.9 µM) | < 1 | – | – | – | – |
| CCCCSCC(O)(Cn1cncn1)C(C)(C)Cc1ccc(Cl)cc1 (stereo not drawn) [I-47] | < 1 | 2 (≈ 5.24 µM) | 4 (≈ 10.5 µM) | 4 (≈ 10.5 µM) | < 1 | – | – | – | – |
| C=CCSCC(O)(Cn1cncn1)C(C)(C)Cc1ccc(Cl)cc1 (stereo not drawn) [I-44] | < 1 | < 1 | < 1 | 4 (≈ 10.9 µM) | < 1 | – | – | – | – |
| CC(C)SCC(O)(Cn1cncn1)C(C)(C)Cc1ccc(F)cc1 (stereo not drawn) [I-55] | 2 (≈ 5.69 µM) | 2 (≈ 5.69 µM) | 2 (≈ 5.69 µM) | 2 (≈ 5.69 µM) | < 1 | – | – | – | – |
| CCSCC(O)(Cn1cncn1)C(C)(C)Cc1ccc(F)cc1 (stereo not drawn) [I-2] | 2 (≈ 5.93 µM) | < 1 | 2 (≈ 5.93 µM) | 4 (≈ 11.9 µM) | < 1 | – | – | – | – |
| CCCCSCC(O)(Cn1cncn1)C(C)(C)Cc1cccc(C)c1 (stereo not drawn) [I-66] | 4 (≈ 11.1 µM) | < 1 | 4 (≈ 11.1 µM) | 8 (≈ 22.1 µM) | 4 (≈ 11.1 µM) | – | – | – | – |
| CC(C)(Cc1ccc(SC(F)(F)F)cc1)C(O)(CS)Cn1cncn1 (stereo not drawn) [I-63] | < 1 | 2 (≈ 5.11 µM) | 2 (≈ 5.11 µM) | 16 (≈ 40.9 µM) | < 1 | – | – | – | – |
| CCSCC(O)(Cn1cncn1)C(C)(C)Cc1ccc(C)cc1 (stereo not drawn) [I-50] | < 1 | < 1 | < 1 | 4 (≈ 12 µM) | < 1 | – | – | – | – |
| CCSCC(O)(Cn1cncn1)C(C)(C)COc1ccc(Cl)c(C)c1 (stereo not drawn) [I-69] | 2 (≈ 5.21 µM) | < 1 | < 1 | 16 (≈ 41.7 µM) | < 1 | – | – | – | – |
